Source: patent publication US12409158B2, “Combination therapy for treating cancer” (GONGWIN BIOPHARM CO., LTD, priority 2022, dated 2025)

How the values were obtained:
TNF-α = assay: IHC analysis of TNF-α in M5 tumors; type: in vivo, BALB/c nude mice; conditions: relative to the control group
Experimental: (§1) The mice were observed daily for clinical signs, weighed them every three days, and at one month after tumor-cell implantation euthanized them with an overdose of anesthetic combined with carbon dioxide. Immediately before sacrificing the mice, the blood was collected from them under anesthesia for hematological assessment. After euthanizing the mice, the tumors were excised immediately. The tumor specimens were divided into two groups. One group was treated with 10% formalin and embedded the specimens in paraffin. These specimens were investigated by hematoxylin and eosin staining; terminal deoxyribonucleotidyl transferase (TdT)-mediated biotin-16-dUTP nick-end labeling (TUNEL assay; APO-BrdU TUNEL Assay Kit, BD Pharmingen, San Diego, CA, USA); and IHC for IL-1β, TNF-α, TGF-β, and CD44, using primary antibodies against these factors (Merck, Billerica, MA, USA). Protein expression was assessed via IHC with the […] mouse/rabbit polymer detection system produced by BioTnA (Kaohsiung, Taiwan). A high-resolution digital microscope (Moticam 2300, Motic Instruments, Richmond, Canada) equipped with Motic Images Plus (version 2.0) was used to capture and analyze the images. The other groups of tumor specimens were first minced coarsely and homogenized, and then stored in a freezer at -80° C.

M5 canine melanoma tumor = M5 canine melanoma tumor growth in implanted mice; type: in vivo, BALB/cByJNarl mice; conditions: cisplatin 2 mg/kg; for Tumor mass: after excision from sacrificed mice, IP three times per week, PTS 100 mg/kg, mean ± SD; for Tumor mass reduction (%): relative to the control, PTS 100 mg/kg IP three times per week
Experimental: Male BALB/cByJNarl mice at six-weeks of age were obtained from National Laboratory Animal Breeding and Research Center, Taipei, Taiwan. Two mice were housed in each cage and provided them with sterile food and water. The mice were maintained under a constant temperature (22±2° C.) and relative humidity (55±5%), with a 12:12 h light:dark cycle. The Institutional Animal Care and Use Committee (IACUC) at the National […] University (IACUC Approval No.110003) reviewed and approved the study protocol, in which procedures were in accordance with the Guidelines for the Care and Use of Laboratory Animals published by the Taiwanese Ministry of Health and Welfare. The M5 canine melanoma cell line was obtained from the School of Veterinary Medicine at National Taiwan University. The cells were cultured in a humidified atmosphere (95% air, 5% CO2) at 37° C. in 90% high-glucose Dulbecc's Modified Eagle Medium supplemented with 5% fetal bovine serum, 50 IU/ml of penicillin, and […] of streptomycin (Gibco Laboratories, Grand Island, NY, USA). The cells were routinely passaged by removing the medium and overlaying the cell monolayer with 0.25% trypsin and 0.1% ethylenediaminetetraacetic acid. The experimental treatments were commenced after the implanted M5 cells had formed a detectable tumor mass, which was assessed on day 7 after implantation. Briefly, the mice were anesthetized via intraperitoneal injection of Zoletil (Virbac Taiwan, Taipei, Taiwan), and then subcutaneously injected 100 μl of cell suspension containing 10^7 viable M5 cells into a posterior leg. […] All treatments were administered via intraperitoneal injection. The control group received saline daily, while the three treatment groups received their corresponding treatments three times per week. The cisplatin group received 2 mg/kg cisplatin (Sigma; St. Louis, MO, USA). The PTS group was administered with 100 mg/kg PTS (Gongwin Biopharm Holding, Taipei, Taiwan). The cisplatin+PTS group received 100 mg/kg PTS and 2 mg/kg cisplatin. The dosage of cisplatin was selected such that this drug affects apoptosis, invasion, metastasis, angiogenesis, and the growth signal mechanisms in canine melanoma implanted in mice. […] The growth of the tumors was assessed every seven days by measuring their largest and smallest diameters, and calculated their volume according to the following formula: […] The mice were observed daily for clinical signs, weighed them every three days, and at one month after tumor-cell implantation euthanized them with an overdose of anesthetic combined with carbon dioxide. […] Protein expression was assessed via IHC with the […] mouse/rabbit polymer detection system produced by BioTnA (Kaohsiung, Taiwan). […]

TGF-β = assay: IHC analysis of TGF-β in M5 tumors; type: in vivo, BALB/c nude mice; conditions: relative to the control group
Experimental: as §1

cleaved caspase 3 = assay: Western blot of cleaved caspase 3 in M5 tumors; type: in vivo, BALB/c nude mice; conditions: vs control group
Experimental: as §1, with “[…] Protein expression and phosphorylation were quantified with ImageJ (National Institutes” for “The other groups”, “Health, Bethesda, […], USA).” for “tumor specimens were first minced coarsely and homogenized, and then stored in a freezer at -80° C.”

mTOR = assay: Western blot of mTOR in M5 tumors; type: in vivo, BALB/c nude mice; conditions: FIG. 7A

Structure (SMILES)	TNF-α activity reduction (TNF-α) [%]	Tumor mass (M5 canine melanoma tumor) [g]	Tumor mass reduction (%) (M5 canine melanoma tumor)	TGF-β expression reduction (TGF-β)	cleaved caspase 3 expression (cleaved caspase 3)	expression of mTOR (mTOR)
N.N.[Cl][Pt][Cl] [Cisplatin, cisplatin, reference compound]	77.4	1.37 ± 0.25	48.7	about 26.6%	significantly higher	
Cc1ccc(S(N)(=O)=O)cc1 [PTS, p-Toluenesulfonamide]	73.0	1.48 ± 0.33	44.2	~23.3%	significantly higher	downregulated
